This is an account of results in PubChem BioAssay AID1996.

Structures are written as SMILES. ≈ marks a conversion by molar mass, not a printed value. Bounds are passed on as bounds.

The conditions of the data set: buffer; pH 7.4; 200.0 µM.
Regarding `CCOC(=O)c1sc(-c2ccc(C(F)(F)F)cc2)nc1O`, the solubility (kinetic) is over 47.6 µg/mL.
As for `O=C(O)c1ccc(NC2=Nc3cccc4cccc2c34)cc1`, the figure is 36 µg/mL (≈ 125 µM); as for `O=C1CNC(=S)N1CCc1ccccc1Cl`, over 38.2 µg/mL.
The molecule `O=C(Nc1ccccc1C(F)(F)F)c1cc2ccccc2o1` registered a kinetic solubility of under 0.7 µg/mL.
In turn, `Cc1ccc(CNc2c(C=O)c(=O)[nH]c3ccccc23)cc1` had a kinetic solubility of 2.2 µg/mL (≈ 7.53 µM).
Regarding `CC(=O)c1cnc(-c2cccc(Cl)c2)s1`, the kinetic solubility was found to be 1.3 µg/mL (≈ 5.47 µM).
For `O=C(O)c1ccc(Cn2ccc3ccccc32)o1` the value was over 36.2 µg/mL.
The molecule `COc1ccc(N2CCN(CC(=O)NC(=O)NC(C)(C)C)CC2)cc1` showed a kinetic solubility of 51.3 µg/mL (≈ 147 µM).
`O=C(Nc1cc(Cl)ccc1O)c1cc(-c2ccco2)on1` displayed a solubility (kinetic) of 1.4 µg/mL (≈ 4.59 µM).
For `COC(=O)c1ccc(=O)n(CC(=O)c2ccc(Cl)cc2)c1`, the kinetic solubility is over 45.9 µg/mL.
Molecule `O=C(Nc1ccc(F)cc1)C1COc2ccccc2O1` (stereo not given) came in with a kinetic solubility of 39.8 µg/mL (≈ 146 µM).
For `CC/C(O)=C1\C(=O)CC(C)(C)CC1=NCCc1nc2ccccc2[nH]1` the value was over 50.9 µg/mL; for `CCN(CC)c1ccc(C=Nc2cccc(S(=O)(=O)N3CCOCC3)c2)c(O)c1`, 8.3 µg/mL (≈ 19.9 µM); for `Cc1cc(C)c(S(=O)(=O)Cc2ccccc2)c(Cl)n1`, over 44.4 µg/mL.
`CCOC(=O)c1c(C)[nH]c(C)c1S(=O)(=O)N1CCOCC1` came in with a kinetic solubility of over 47.5 µg/mL.
The molecule `O=C(CN1C(=O)NC2(CCOc3ccccc32)C1=O)NCCc1ccccc1` (stereo not given) came in with a solubility (kinetic) of over 56.9 µg/mL.
On to `CCSC1=C(C#N)C2(CCCCC2)C2=C(CC(C)(C)CC2=O)N1`, for which the solubility (kinetic) came out at 1 µg/mL (≈ 3.03 µM).
On to `Cc1csc(SCC(=O)NC(=O)NC(C)C)n1`, for which the solubility (kinetic) is over 41 µg/mL.
For `CCc1ccc(NC(=O)N2CCCCCC2)cc1`, the kinetic solubility was 31.9 µg/mL (≈ 129 µM).
`CN(Cc1ccc(OC(F)F)cc1)C(=O)/C=C/c1ccc(S(=O)(=O)N2CCOCC2)cc1` showed a solubility (kinetic) of 22.8 µg/mL (≈ 48.9 µM).
For `CCOc1cc(N2CCOCC2)c(OCC)cc1NC(=O)c1ccc(OC)c(S(=O)(=O)N2CCOCC2)c1`, the kinetic solubility is 45.2 µg/mL (≈ 82.2 µM).
In turn, `O=CN1Cc2ccccc2-c2ccccc2C1` registered a solubility (kinetic) of over 33.5 µg/mL.
Molecule `CC1Sc2ccc(C(=O)NCc3ccccc3Cl)cc2NC1=O` (stereo not given) registered a kinetic solubility of 4.1 µg/mL (≈ 11.8 µM).
With `Cc1cc(C)n2nc(SCC(=O)N3CCC(C)CC3)nc2n1`, the solubility (kinetic) is over 47.9 µg/mL.
On to `COc1ccc(CN(C)CC(=O)NC(C)c2ccccc2)cc1OC` (stereo not given), for which the solubility (kinetic) is over 51.4 µg/mL.
As to `COc1ccc(C)cc1-n1c(C)cc(C=O)c1C`, the kinetic solubility was found to be 36.4 µg/mL (≈ 150 µM).
As to `OC(CNCc1ccc2c(c1)OCO2)COc1ccccc1` (stereo not given), the solubility (kinetic) is over 45.2 µg/mL.
Molecule `O=C(NCC1CCCO1)c1cc2ccccc2nc1Cl` (stereo not given) registered a solubility (kinetic) of over 43.6 µg/mL.
As for `Cc1ccc(S(=O)(=O)NCCNc2ccccc2[N+](=O)[O-])cc1`, the solubility (kinetic) came to 1.1 µg/mL (≈ 3.28 µM).
For the molecule `CCN(C1CCS(=O)(=O)C1)S(=O)(=O)c1ccc2ccccc2c1` (stereo not given), the kinetic solubility was found to be 15.9 µg/mL (≈ 45 µM).
As to `O=C(NC1CCCCC1)c1ccc(-c2cccc([N+](=O)[O-])c2)o1`, the solubility (kinetic) was 2.8 µg/mL (≈ 8.91 µM).
In turn, `CC12CC3(C)CC(C)(C1)CC(C(=O)NCc1ccccn1)(C2)C3` gave a kinetic solubility of 42.4 µg/mL (≈ 136 µM).
For `COc1ccc(C(=O)NCc2ccc3c(c2)OCO3)c(OC)c1`, the kinetic solubility was over 47.3 µg/mL.
For `Cc1ccnc(NCc2ccc(Br)cc2)c1` the value was 2.3 µg/mL (≈ 8.3 µM); for `Cc1cc(C)cc(NC(=O)N2CCC(NC(=O)c3ccco3)CC2)c1`, 44.4 µg/mL (≈ 130 µM); for `Cc1ccc2nc(SC(C)C(=O)N3CCOCC3)[nH]c2c1` (stereo not given), 38.3 µg/mL (≈ 125 µM).
On to `Cc1noc(C)c1COC(=O)c1cc(S(=O)(=O)N2CCOCC2)ccc1Cl`, for which the solubility (kinetic) is 42.4 µg/mL (≈ 102 µM).
Regarding `CCOc1cc(N2CCOCC2)c(OCC)cc1NC(=O)COC(=O)C1CCCN1S(=O)(=O)c1ccccc1F` (stereo not given), the solubility (kinetic) is 84.7 µg/mL (≈ 146 µM).
Consider `CN1CC2([N+](=O)[O-])CC=C(Cl)C([N+](=O)[O-])(C1)C2` (stereo not given), for which the kinetic solubility was over 39.3 µg/mL.
`COc1ccc(CCC(=O)Nc2ncc(C)s2)cc1` came in with a kinetic solubility of 4.1 µg/mL (≈ 14.8 µM).
